According to ChEMBL document CHEMBL1124111, “Studies directed toward ascertaining the active conformation of 1,4-dihydropyridine calcium entry blockers” (J Med Chem, 1988):

Experiments:
[1] = target: Voltage-dependent L-type calcium channel (Cavia porcellus); assay: Dissociation constant for inhibition of [3H]nitrendipine binding to guinea pig myocardial membranes; details: read-out: Kd2
Oryctolagus cuniculus = species on record: Oryctolagus cuniculus; assay: Compound was tested for ability to relax potassium-contracted rabbit aorta smooth muscle; assay type: functional
[2] = target: Voltage-dependent L-type calcium channel (Cavia porcellus); assay: Dissociation constant for inhibition of [3H]nitrendipine binding to guinea pig myocardial membranes; details: read-out: Kd1
[3] = tested on: Voltage-dependent L-type calcium channel (Cavia porcellus); assay: Bmax2 from dihydropyridine receptor binding assay in guinea pig myocardial membranes
[4] = tested on: Voltage-dependent L-type calcium channel (Cavia porcellus); assay: Bmax1 from dihydropyridine receptor binding assay in guinea pig myocardial membranes
[5] = target: Voltage-dependent L-type calcium channel (Cavia porcellus); assay: Dissociation constant for inhibition of [3H]nitrendipine binding to guinea pig myocardial membranes; details: read-out: Kd2; remark: listed apart in the source

Row | Compound | Kd [1] [nM] | IC50 (Oryctolagus cuniculus) [nM] | Kd [2] [nM] | Bmax2 [3] [%] | Bmax1 [4] [%] | Kd [5] [nM]
1 | COC(=O)C1=C(C)N=C(C)/C(=C(\O)OC)C1c1ccc([N+](=O)[O-])cc1Cl (stereo unspecified) | 107 | 185 | 1.25 | 92 | 8 | –
2 | COC(=O)C1=C(C)N=C(C)/C(=C(\O)OC)C1c1cccc([N+](=O)[O-])c1Cl (stereo unspecified) | – | 1 | 0.23 | 21 | 79 | 85
3 | COC(=O)C1=C(C)N=C(C)/C(=C(\O)OC)C1c1cccc(C#N)c1 (stereo unspecified) | – | 11.1 | 2.15 | 17 | 83 | 152
4 | COC(=O)C1=C(C)N=C(C)/C(=C(\O)OC)C1c1cc([N+](=O)[O-])ccc1Cl (stereo unspecified) | – | 13.6 | 0.95 | 51 | 49 | 74.4
5 | COC(=O)C1=C(C)N=C(C)/C(=C(\O)OC)C1c1ccccc1Cl (stereo unspecified) | – | 3 | 0.006 | 79 | 21 | 1
6 | COC(=O)C1=C(C)NC(C)=C(C(=O)OC)C1c1ccccc1[N+](=O)[O-] [NIFEDIPINE] | – | 0.5 | – | – | – | –
